Source: ChEMBL document CHEMBL5550187, “The Development of a Highly Potent and Selective Human Toll-like Receptor 2 Agonist: Synthesis and Biological Evaluation of CaLGL-1 and Its Derivatives” (J Med Chem, 2024)
Activity calls are given as the source filed them. The calls are words filed in the database; no cut-off is given here.

Tests used:
Format in all cases: cell-based
[1] = target: Toll-like receptor 2 (Mus musculus) (UniProt Q9QUN7); experiment: Agonist activity at TLR2 in CSF-2/GM-CSF treated wild type C57BL/6 mouse BMDC cells assessed as increase in TNF-alpha level at 10 uM measured after 24 hrs by ELISA
[2] = target: Toll-like receptor 2 (Mus musculus) (UniProt Q9QUN7); experiment: Agonist activity at TLR2 in CSF-2/GM-CSF treated wild type C57BL/6 mouse BMDC cells assessed as increase in TNF-alpha mRNA expression at 10 uM measured after 24 hrs by qRT-PCR analysis
[3] = target: T1, Toll-like receptor 2 (Homo sapiens, UniProt O60603); experiment: Agonist activity at TLR2 in PMA-differentiated human THP-1 cells assessed as increase in TNF-alpha mRNA expression by qRT-PCR analysis
[4] = target: T1, Toll-like receptor 2; experiment: Agonist activity at TLR2 in PMA-differentiated human THP-1 cells assessed as increase in IL-1beta mRNA expression by qRT-PCR analysis
[5] = target: T1, Toll-like receptor 2; experiment: Agonist activity at TLR2 in PMA-differentiated human THP-1 cells assessed as increase in IL-6 mRNA expression by qRT-PCR analysis
[6] = target: TLR2/TLR6 (Homo sapiens) (UniProt O60603+Q9Y2C9); experiment: Agonist activity at human TLR2/TLR6 heterodimer transfected in HEK293T cells cotransfected with NF-kappaB promoter assessed as increase in NF-kappaB activation at 1 to 50 uM measured after 24 hrs by Dual-Glo luciferase assay; settings: dose 1-50 µM
[7] = target: Toll-like receptor 1/2 (Homo sapiens) (UniProt O60603+Q15399); experiment: Agonist activity at human TLR1/TLR2 heterodimer transfected in HEK293T cells cotransfected with NF-kappaB promoter assessed as fold increase in NF-kappaB activation at 1 to 50 uM measured after 24 hrs by Dual-Glo luciferase assay relative to TLR2 alone; settings: filed as agonist, dose 1-50 µM
[8] = target: T1, Toll-like receptor 2; experiment: Agonist activity at human TLR2 transfected in HEK293T cells cotransfected with NF-kappaB promoter assessed as increase in NF-kappaB activation measured after 24 hrs by Dual-Glo luciferase assay; settings: filed as agonist
[9] = target: T1, Toll-like receptor 2; experiment: Agonist activity at TLR2 in PMA-differentiated human THP-1 cells assessed as increase in TNF-alpha level by ELISA
[10] = target: Toll-like receptor 2 (Mus musculus, UniProt Q9QUN7); experiment: Agonist activity at TLR2 in RmGM-CSF-induced wild type Black6 mouse BMDC cells lacking TLR4 assessed as increase in TNFalpha response incubated overnight by ELISA
Sequence of Toll-like receptor 2 (Mus musculus, UniProt Q9QUN7) (Q9QUN7 whole entry): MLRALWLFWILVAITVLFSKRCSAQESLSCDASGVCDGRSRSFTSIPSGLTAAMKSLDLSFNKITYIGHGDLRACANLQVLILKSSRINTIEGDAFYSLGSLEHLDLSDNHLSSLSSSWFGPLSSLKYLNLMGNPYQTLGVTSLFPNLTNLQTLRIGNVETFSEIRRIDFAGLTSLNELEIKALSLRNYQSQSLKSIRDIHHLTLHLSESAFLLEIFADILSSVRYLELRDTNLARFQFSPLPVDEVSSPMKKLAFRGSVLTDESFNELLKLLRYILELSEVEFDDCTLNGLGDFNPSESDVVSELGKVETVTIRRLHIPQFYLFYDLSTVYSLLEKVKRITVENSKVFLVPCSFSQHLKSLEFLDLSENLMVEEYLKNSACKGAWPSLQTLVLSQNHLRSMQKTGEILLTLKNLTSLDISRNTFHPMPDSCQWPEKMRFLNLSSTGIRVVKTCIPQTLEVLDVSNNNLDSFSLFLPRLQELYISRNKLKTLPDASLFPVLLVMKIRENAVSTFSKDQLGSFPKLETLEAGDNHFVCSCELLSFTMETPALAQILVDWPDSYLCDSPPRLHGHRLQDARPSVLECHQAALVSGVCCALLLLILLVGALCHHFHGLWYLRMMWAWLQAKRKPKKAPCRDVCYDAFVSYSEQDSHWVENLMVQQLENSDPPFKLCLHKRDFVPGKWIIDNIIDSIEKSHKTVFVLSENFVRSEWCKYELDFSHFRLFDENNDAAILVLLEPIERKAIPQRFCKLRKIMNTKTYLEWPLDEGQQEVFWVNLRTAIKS

T1 sequence (O60603 whole entry): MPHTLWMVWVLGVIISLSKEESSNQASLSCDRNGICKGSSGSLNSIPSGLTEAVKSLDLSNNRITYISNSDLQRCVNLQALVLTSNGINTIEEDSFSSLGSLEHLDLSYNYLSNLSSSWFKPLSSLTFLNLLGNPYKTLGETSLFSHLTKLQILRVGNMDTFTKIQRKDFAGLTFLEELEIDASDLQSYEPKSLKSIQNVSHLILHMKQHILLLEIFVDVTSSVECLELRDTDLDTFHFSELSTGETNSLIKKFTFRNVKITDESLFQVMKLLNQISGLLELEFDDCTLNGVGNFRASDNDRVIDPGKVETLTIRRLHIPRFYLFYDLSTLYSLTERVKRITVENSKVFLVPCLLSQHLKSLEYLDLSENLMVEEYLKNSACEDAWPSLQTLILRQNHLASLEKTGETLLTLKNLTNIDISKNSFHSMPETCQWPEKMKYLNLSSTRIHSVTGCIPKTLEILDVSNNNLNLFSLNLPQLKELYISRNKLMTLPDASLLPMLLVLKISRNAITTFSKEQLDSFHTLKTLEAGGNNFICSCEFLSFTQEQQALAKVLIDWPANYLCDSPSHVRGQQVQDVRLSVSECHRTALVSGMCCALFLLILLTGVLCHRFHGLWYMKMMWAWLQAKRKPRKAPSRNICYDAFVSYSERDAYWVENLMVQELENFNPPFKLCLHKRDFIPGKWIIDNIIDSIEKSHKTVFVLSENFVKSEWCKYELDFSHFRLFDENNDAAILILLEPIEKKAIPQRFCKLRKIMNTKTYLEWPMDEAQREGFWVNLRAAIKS
Sequence of Toll-like receptor 2 (Mus musculus) (Q9QUN7 whole entry): as the sequence (Q9QUN7 whole entry) above

SMILES | Activity [1] | Activity [2] | Activity ([1]; filed as agonist) | Activity ([2]; filed as agonist) | further results
CCCCCCCCCCCCCCCCCCC[C@H]1OC[C@H]([C@@H]2O[C@@H](OC[C@H](O)COC(=O)CCCCCCCCCCC)[C@H](O)[C@H]2O)O1 | inactive | inactive |  |  | 
CCCCCCCCCCCC(=O)OC[C@@H](O)CO[C@@H]1O[C@@H]([C@H]2CO[C@@H](CCCCCCCCC)O2)[C@H](O)[C@H]1O |  |  | Active | Active | 
CCCCCCCCCCCCCCCCCCC[C@@H]1OC[C@H]([C@@H]2O[C@@H](OC[C@H](O)COC(=O)CCCCCCCCCCC)[C@H](O)[C@H]2O)O1 | inactive | inactive |  |  | 
CCCCCCCCCCCCCCCCC[C@@H]1OC[C@H]([C@@H]2O[C@@H](OC[C@H](O)COC(=O)CCCCCCCCCCC)[C@H](O)[C@H]2O)O1 | inactive | inactive |  |  | 
CCCCCCCCCCCC(=O)OC[C@@H](O)CO[C@@H]1O[C@@H]([C@H]2CO[C@@H](CCCCCCCCCCC)O2)[C@H](O)[C@H]1O |  |  | Active | Active | Activity ([3]; filed as agonist): Active; Activity ([4]; filed as agonist): Active; Activity ([5]; filed as agonist): Active
CCCCCCCCCCCCCCCCC[C@H]1OC[C@H]([C@@H]2O[C@@H](OC[C@H](O)COC(=O)CCCCCCCCCCC)[C@H](O)[C@H]2O)O1 | inactive | inactive |  |  | 
CCCCCCCCCCCC(=O)OC[C@@H](O)CO[C@@H]1O[C@@H]([C@H]2CO[C@H](CCCCCCCCC)O2)[C@H](O)[C@H]1O |  |  | Active | Active | 
CCCCCCCCCCCC[C@@H]1OC[C@H]([C@@H]2O[C@@H](OC[C@H](O)COC(=O)CCCCCCCCCCC)[C@H](O)[C@H]2O)O1 |  |  |  |  | Activity [6]: inactive; fold change (FC) [7]: 15; Activity [8]: Active; EC50 [9]: 0.000116 µM
CCCCCCCCCCCC(=O)OC[C@@H](O)CO[C@@H]1O[C@@H]([C@H]2CO[C@H](CCCCCCCCCCC)O2)[C@H](O)[C@H]1O |  |  | Active | Active | 
CCCCCCCCCCCCC[C@@H]1OC[C@H]([C@@H]2O[C@@H](OC[C@H](O)COC(=O)CCCCCCCCCCC)[C@H](O)[C@H]2O)O1 |  |  |  |  | Activity [3]: inactive; Activity [4]: inactive; EC50 [10]: 3.2 µM; Activity [5]: inactive
